From US11780868B1, “Homoleptic metal coordination complexes as antifungal agents” (King Abdulaziz University, priority 2023, dated 2023)

Key:
C. albicans 4251 [1] = experiment: Cell count and viability assay (Muse cell analyser); assay type: cell-based, Candida albicans; conditions: C. albicans 4251 (Flz susceptible), C1 at MFC, 24 h; untreated 90.9%
Procedure: (§1) Quantification of Live/Dead C. albicans cells in response to C1 was carried out. The actual count of viable and dead cells of C. albicans by treatment of C1 was monitored by Cell Count and Viability assay kit. An inoculum (1×10^6 cells/mL) of both Flz sensitive (C. albicans 4251) and resistant (C. albicans 5112) C. albicans strains was prepared followed by treatment with various concentrations of C1 (0.5×MIC, 1×MIC and MFC) for 24 h at 37° C. and 150 rpm. For the negative control, only inoculum treated with 1% DMSO was used and for the positive control, hydrogen peroxide (10 mM) was used in a 1:1 ratio with the inoculum. Following incubation, the cells were then washed in PBS and centrifuged at 4000 rpm for 5 minutes at 4° C. and the final pellet was resuspended in PBS. The Cell Count and Viability assay samples were prepared by mixing 190 μL of Luminex Cell Viability Dilution Buffer and 10 μL of the sample in a 1.5 mL Eppendorf tube and incubated in the dark for 5 min at room temperature. All samples were analysed by a Guava® Muse® Cell Analyser (Luminex A DiaSorin Company, USA).

C. albicans 5112 [2] = experiment: as above; assay type: cell-based, Candida albicans; conditions: C. albicans 5112 (Flz resistant), C1 at MFC, 24 h; untreated 86.8%
Procedure: as §1

cytochrome c oxidase = experiment: Cytochrome c oxidase activity assay; assay type: cell-based
Procedure: To examine the effect of C1 on the induction of cellular apoptosis in C. albicans cells, crucial apoptotic markers were observed. For this purpose, C. albicans 4251 and C. albicans 5112 cells were subjected to protoplast preparation by utilizing a method described previously by Srivastava et al. in 2020 through their research study. Briefly, cells were grown overnight and were exposed for 4 h with different concentrations of C1 (0.5×MIC and 1×MIC) and H2O2 (positive control) whereas, untreated cells were used as a negative control. Later on, the cells were washed and incubated for 10 min at room temperature in protoplast buffer-1 (1M sorbitol, 0.05M tris base, 0.01M MgCl2, 0.03M DTT, pH 7.4). The cells were spun at 1500 rpm for 5 min and the pellet was resuspended in protoplast buffer-2 (1M sorbitol, 0.05M tris base, 0.01M MgCl2, 0.001M DTT, pH 7.4) supplemented with lyticase enzyme (1 μg/mL) and incubated for 1 h at room temperature. Afterwards, the cell suspension was again centrifuged, and the pellet was resuspended and incubated for 20 min at room temperature in protoplast buffer-3 (1M sorbitol, 0.05M tris base, 0.01M MgCl2, pH 7.4). A final washing (1500 rpm for 5 min) was given to the cells and the pellet consisting of C. albicans protoplasts was resuspended in fresh PBS and was stored at 4° C. until further use.
The role of C1 in the modulating cytochrome c oxidase activity in C. albicans was investigated. The mitochondria from C. albicans 4251 and C. albicans 5112 were isolated using Yeast Mitochondria Isolation Kit—MITOISO3 (Sigma-Aldrich St. Louis, MO, U.S.A.) and then the Cytochrome c oxidase assay kit (ScienCell, Cat. No. 8278, CA, USA) was used to detect the cytochrome c oxidase activity in the cells following the manufacturer's instructions. Briefly, the C. albicans protoplasts were homogenized and the homogenate was resuspended and centrifuged in storage buffer (1×, 1 mL) at 6,500×g at 4° C. (10 min). The supernatant was discarded and resuspended in 200 μL of storage buffer (1×). The TCA Lowry method was utilized for determining the protein concentration present in the sample. Later on, the estimation of cytochrome c oxidase activity was done by preparing an assay mixture (Assay Buffer, 940 μL; n-dodecyl β-D-maltoside solution, 10 μL; mitochondrial protein, 2 μg) in a cuvette and then adding cytochrome c substrate solution (50 μL, provided in the kit) to it. Any change in absorbance was measured on a kinetic program (550 nm; every 30 seconds with an interval of 5 seconds) by using a spectrophotometer (UV-1800, Shimadzu Corporation, Japan).

horse red blood cells = experiment: Haemolytic activity; assay type: cell-based; conditions: horse RBC
Procedure: To determine the cytotoxicity of C1, horse red blood cells (H-RBC; NHLS, Johannesburg, South Africa) were used. The horse blood was centrifuged, and the cell pellet was secured and washed three times with cold PBS. The final pellet was dissolved in cold PBS to make a 10% H-RBC solution. From this solution, 15 mL of 1% H-RBC solution was again prepared with the help of PBS. Then, 1 mL was aliquoted and added to various concentrations (0.5×MIC, 1×MIC, 2×MIC and 4×MIC) of C1 in 2 mL Eppendorf tubes. The negative control consisted of the RBC solution mixed with PBS; while the positive control consisted of RBC mixed with 1% Triton X-100. The samples were incubated for 4 h at 37° C. Following incubation, the samples were centrifuged at 2000 rpm for 10 minutes and supernatant (200 μL) was transferred to a flat-bottomed 96-well microtiter plate and the absorbance was measured at 450 nm using a SpectraMax ID3 Multimode Plate Reader (Molecular Devices, LLC., USA). The percentage of haemolysis was calculated by using the following equation: […]

C. albicans 4251 [3] = experiment: Cell cycle analysis (Muse cell analyser); assay type: cell-based, Candida albicans; conditions: 4 h
Procedure: (§2) The effect of C1 on the cell cycle of C. albicans 4251 and C. albicans 5112 was determined using Cell Cycle kit MCH100106 in a Guava® Muse® Cell Analyser according to the manufacturer's instructions. The cells of the C. albicans (1×10^6 cells/mL) were exposed to C1 for 4 h at different concentrations (0.5×MIC and 1×MIC). Each sample was rinsed with fresh PBS after exposure, and the pellet was fixed in 1 mL of 70% ice-cold ethanol (Sigma Aldrich Co., USA). The Cell Cycle assay was prepared by mixing the 100 μL of Luminex® Cell Cycle dye and 100 μL of the prewashed fixed cells and incubated in the dark for 30 minutes at room temperature. All samples were analysed by a Guava® Muse® Cell Analyser (Luminex® A DiaSorin Company, USA). During the experiment, both the negative (without treatment) and positive control (10 mM H2O2 treated) were used.

C. albicans 5112 [4] = experiment: Cell cycle analysis (Muse cell analyser); assay type: cell-based, Candida albicans; conditions: 4 h
Procedure: as §2

Brc1ccc([O][Co][O]c2ccc(Br)cc2C=Nc2ccc3c(c2)OCCO3)c(C=Nc2ccc3c(c2)OCCO3)c1 [Complex C1, [Co(L)2]]
live cells (C. albicans 4251 [1]): 4.3% | live cells (C. albicans 5112 [2]): 8.4% | average percent decrease in cytochrome c oxidase activity (cytochrome c oxidase; Flz resistant strain (C. albicans 5112), 0.5×MIC): 14.2% | average percent decrease in cytochrome c oxidase activity (cytochrome c oxidase; Flz resistant strain (C. albicans 5112), 1×MIC): 47.53% | average percent decrease in cytochrome c oxidase activity (cytochrome c oxidase; Flz sensitive strain (C. albicans 4251), 0.5×MIC): 22.61% | average percent decrease in cytochrome c oxidase activity (cytochrome c oxidase; Flz sensitive strain (C. albicans 4251), 1×MIC): 51.3% | haemolytic activity (in words) (horse red blood cells): considerably less haemolytic activity | haemolytic activity (horse red blood cells; 4×MIC, 4 h, 37° C.): 10% | cells in G0/G1 phase (C. albicans 4251 [3]; C. albicans 4251 (Flz sensitive), 0.5×MIC): 62% | cells in G0/G1 phase (C. albicans 4251 [3]; C. albicans 4251, 1×MIC): 96.55% | cells in G0/G1 phase (C. albicans 5112 [4]; C. albicans 5112 (Flz resistant), 0.5×MIC): 50.8% | cells in G0/G1 phase (C. albicans 5112 [4]; C. albicans 5112, 1×MIC): 94.1%
